From ChEMBL document CHEMBL5550178, “Synthesis and anticancer properties of novel dolastatin 10 analogs featuring five-membered heterocyclic rings with a linkable group at the C-terminus” (Bioorg Med Chem, 2024)
Activity calls are given as the source filed them. The calls are words filed in the database; no cut-off is given here.

Columns and labels:
PC-3 [1] = test: Induction of cell cycle arrest in human PC-3 cells assessed as accumulation of cells at G1/G0 phase at 1 nM measured after 6 days by PI staining based flow cytometry analysis (reference value: 70.7%); format: functional; details: time 6 day
PC-3 [2] = test: Induction of cell cycle arrest in human PC-3 cells assessed as accumulation of cells at G2/M phase at 50 nM measured after 4 days by PI staining based flow cytometry analysis (reference value: 11.9%); format: functional; details: time 4 day
PC-3 [3] = test: Induction of cell cycle arrest in human PC-3 cells assessed as accumulation of cells at G2/M phase at 1 nM measured after 6 days by PI staining based flow cytometry analysis (reference value: 15.8%); format: functional; details: time 6 day
PC-3 [4] = test: Induction of cell cycle arrest in human PC-3 cells assessed as accumulation of cells at G2/M phase at 1 nM measured after 4 days by PI staining based flow cytometry analysis (reference value: 11.9%); format: functional; details: time 4 day
PANC-1 = test: Cytotoxicity against human PANC-1 cells assessed as inhibition of cell growth measured after 8 days by XTT cell viability assay; format: functional, cell-based; details: PANC-1, 192 h
PC-3 [5] = test: Induction of cell cycle arrest in human PC-3 cells assessed as accumulation of cells at G1/G0 phase at 50 nM measured after 6 days by PI staining based flow cytometry analysis (reference value: 70.7%); format: functional; details: time 6 day
PC-3 [6] = test: Upregulation of BAX expression in human PC-3 cells at 1 to 50 nM measured after 8 days by Western blot analysis; format: functional, cell-based; details: dose 1-50 nM, time 8.0 day
PC-3 [7] = test: Induction of cell cycle arrest in human PC-3 cells assessed as accumulation of cells at G1/G0 phase at 50 nM measured after 4 days by PI staining based flow cytometry analysis (reference value: 78.3%); format: functional; details: time 4 day
PC-3 [8] = test: Induction of cell cycle arrest in human PC-3 cells assessed as accumulation of cells at G2/M phase at 1000 nM measured after 8 days by PI staining based flow cytometry analysis (reference value: 12.4%); format: functional; details: time 8 day
PC-3 [9] = test: Upregulation of CYP1A1 expression in human PC-3 cells at 1 to 50 nM measured after 4 to 8 days by Western blot analysis; format: functional, cell-based; details: dose 1-50 nM, time 4-8 day
PC-3 [10] = test: Induction of cell cycle arrest in human PC-3 cells assessed as accumulation of cells at G2/M phase at 1000 nM measured after 6 days by PI staining based flow cytometry analysis (reference value: 15.8%); format: functional; details: time 6 day
PC-3 [11] = test: Induction of cell cycle arrest in human PC-3 cells assessed as accumulation of cells at G1/G0 phase at 1000 nM measured after 8 days by PI staining based flow cytometry analysis (reference value: 64.6%); format: functional; details: time 8 day
PC-3 [12] = test: Induction of cell cycle arrest in human PC-3 cells assessed as accumulation of cells at S phase at 50 nM measured after 4 days by PI staining based flow cytometry analysis (reference value: 9.87%); format: functional; details: time 4 day
MDA-MB-231 = test: Cytotoxicity against human MDA-MB-231 cells assessed as inhibition of cell growth measured after 8 days by XTT cell viability assay; format: functional, cell-based; details: MDA-MB-231, 192 h
PC-3 [13] = test: Induction of cell cycle arrest in human PC-3 cells assessed as accumulation of cells at S phase at 1 nM measured after 6 days by PI staining based flow cytometry analysis (reference value: 14.4%); format: functional; details: time 6 day
PC-3 [14] = test: Induction of cell cycle arrest in human PC-3 cells assessed as accumulation of cells at S phase at 1 nM measured after 8 days by PI staining based flow cytometry analysis (reference value: 23.9%); format: functional; details: time 8 day
PC-3 [15] = test: Induction of cell cycle arrest in human PC-3 cells assessed as accumulation of cells at G2/M phase at 50 nM measured after 6 days by PI staining based flow cytometry analysis (reference value: 15.8%); format: functional; details: time 6 day
PC-3 [16] = test: Induction of cell cycle arrest in human PC-3 cells assessed as accumulation of cells at G1/G0 phase at 50 nM measured after 8 days by PI staining based flow cytometry analysis (reference value: 64.6%); format: functional; details: time 8 day
PC-3 [17] = test: Upregulation of BAX expression in human PC-3 cells at 1 to 50 nM measured after 6 days by Western blot analysis; format: functional, cell-based; details: dose 1-50 nM, time 6.0 day
PC-3 [18] = test: Induction of cell cycle arrest in human PC-3 cells assessed as accumulation of cells at S phase at 1000 nM measured after 6 days by PI staining based flow cytometry analysis (reference value: 14.4%); format: functional; details: time 6 day
PC-3 [19] = test: Induction of cell cycle arrest in human PC-3 cells assessed as accumulation of cells at S phase at 1000 nM measured after 8 days by PI staining based flow cytometry analysis (reference value: 23.9%); format: functional; details: time 8 day
PC-3 [20] = test: Induction of cell cycle arrest in human PC-3 cells assessed as accumulation of cells at S phase at 50 nM measured after 8 days by PI staining based flow cytometry analysis (reference value: 23.9%); format: functional; details: time 8 day
[21] = Cytotoxicity against human Fibroblast cells assessed as inhibition of cell growth measured after 8 days by XTT cell viability assay; format: toxicity, cell-based
PC-3 [22] = test: Induction of cell cycle arrest in human PC-3 cells assessed as accumulation of cells at G1/G0 phase at 1 nM measured after 8 days by PI staining based flow cytometry analysis (reference value: 64.6%); format: functional; details: time 8 day
PC-3 [23] = test: Induction of cell cycle arrest in human PC-3 cells assessed as accumulation of cells at S phase at 1000 nM measured after 4 days by PI staining based flow cytometry analysis (reference value: 9.87%); format: functional; details: time 4 day
PC-3 [24] = test: Upregulation of caspase-3 expression in human PC-3 cells at 1 to 50 nM measured after 4 to 8 days by Western blot analysis; format: functional, cell-based; details: dose 1-50 nM, time 4-8 day
PC-3 [25] = test: Induction of cell cycle arrest in human PC-3 cells assessed as accumulation of cells at S phase at 1 nM measured after 4 days by PI staining based flow cytometry analysis (reference value: 9.87%); format: functional; details: time 4 day
PC-3 [26] = test: Cytotoxicity against human PC-3 cells assessed as inhibition of cell growth measured after 8 days by XTT cell viability assay; format: functional, cell-based; details: PC-3, 192 h
NCI-H1299 = test: Cytotoxicity against human NCI-H1299 cells assessed as inhibition of cell growth measured after 8 days by XTT cell viability assay; format: functional, cell-based; details: NCI-H1299, 192 h
PC-3 [27] = test: Induction of cell cycle arrest in human PC-3 cells assessed as accumulation of cells at G1/G0 phase at 1000 nM measured after 6 days by PI staining based flow cytometry analysis (reference value: 70.7%); format: functional; details: time 6 day
PC-3 [28] = test: Induction of cell cycle arrest in human PC-3 cells assessed as accumulation of cells at G1/G0 phase at 1000 nM measured after 4 days by PI staining based flow cytometry analysis (reference value: 78.3%); format: functional; details: time 4 day
PC-3 [29] = test: Induction of cell cycle arrest in human PC-3 cells assessed as accumulation of cells at G2/M phase at 1 nM measured after 8 days by PI staining based flow cytometry analysis (reference value: 12.4%); format: functional; details: time 8 day
PC-3 [30] = test: Induction of cell cycle arrest in human PC-3 cells assessed as accumulation of cells at G2/M phase at 1000 nM measured after 4 days by PI staining based flow cytometry analysis (reference value: 11.9%); format: functional; details: time 4 day
PC-3 [31] = test: Induction of cell cycle arrest in human PC-3 cells assessed as accumulation of cells at G2/M phase at 50 nM measured after 8 days by PI staining based flow cytometry analysis (reference value: 12.4%); format: functional; details: time 8 day
PC-3 [32] = test: Induction of cell cycle arrest in human PC-3 cells assessed as accumulation of cells at G1/G0 phase at 1 nM measured after 4 days by PI staining based flow cytometry analysis (reference value: 78.3%); format: functional; details: time 4 day
PC-3 [33] = test: Induction of cell cycle arrest in human PC-3 cells assessed as accumulation of cells at S phase at 50 nM measured after 6 days by PI staining based flow cytometry analysis (reference value: 14.4%); format: functional; details: time 6 day

Compound `CC[C@H](C)[C@@H]([C@@H](CC(=O)N1CCC[C@H]1[C@H](OC)[C@@H](C)C(=O)N[C@@H](Cc1ccccc1)c1nc(CN)cs1)OC)N(C)C(=O)[C@@H](NC(=O)[C@H](C(C)C)N(C)C)C(C)C` has an Activity (PC-3 [1]) of 35.5%, an Activity (PC-3 [2]) of 12% and an Activity (PC-3 [3]) of 36.5%. The Activity (PC-3 [4]) was 9.06%, the IC50 (PANC-1) was 0.2 nM and the Activity (PC-3 [5]) was 59.6%. For the same compound, the Activity (PC-3 [6]) was “inactive”, the Activity (PC-3 [7]) was 69.8% and the Activity (PC-3 [8]) was 22.9%. The Activity (PC-3 [9]) was “Active”, the Activity (PC-3 [10]) was 12.8% and the Activity (PC-3 [11]) was 38.1%. For the same compound, the Activity (PC-3 [12]) was 19.1%, the IC50 (MDA-MB-231) was 36.2 nM and the Activity (PC-3 [13]) was 29.5%. The Activity (PC-3 [14]) was 26.1%, the Activity (PC-3 [15]) was 15.3% and the Activity (PC-3 [16]) was 43.3%. The Activity (PC-3 [17]) was “Active”, the Activity (PC-3 [18]) was 29.3% and the Activity (PC-3 [19]) was 40.9%. For the same compound, the Activity (PC-3 [20]) was 34.1%, the IC50 at 8 days [21] was 38.5 nM and the Activity (PC-3 [22]) was 65.9%. The Activity (PC-3 [23]) was 17.8%, the Activity (PC-3 [24]) was “Active” and the Activity (PC-3 [25]) was 14.5%. It also gave an IC50 (PC-3 [26]) of 0.9 nM, an IC50 (NCI-H1299) of 3.1 nM and an Activity (PC-3 [27]) of 59.2%. The Activity (PC-3 [28]) was 64.5%, the Activity (PC-3 [29]) was 9.28% and the Activity (PC-3 [30]) was 18.5%. For the same compound, the Activity (PC-3 [31]) was 24%, the Activity (PC-3 [32]) was 77.1% and the Activity (PC-3 [33]) was 26.4%.
